Tests used:
[1] = plasma protein binding (free fraction); assay type: in vitro ADME; details: mouse
Source text: (§1) Example 3 of U.S. Pat. No. 9,789,131, which is incorporated herein by reference, describes assays for determining the plasma and brain free fraction of certain compounds such as I-1. Compounds described herein may be evaluated using such assays or similar variants thereof.

[2] = brain tissue binding (free fraction); assay type: in vitro ADME, mouse; details: mouse brain tissue
Source text: as §1

[3] = test system: traumatic brain injury (TBI) in mice; assay: mouse traumatic brain injury (TBI) model; details: in vivo
Method: Animals and traumatic brain injury (TBI): TBI is performed with a controlled closed skull injury model as described in Talley-Watts et al. 2012 (J. Neurotrauma 30, 55-66). Following the method described therein, a pneumatic impact device is used to generate a moderate TBI leaving the skull and dura matter intact. To achieve this, C57BL/6 mice are anesthetized with isoflurane (3% induction, 1% maintenance) in 100% oxygen. A body temperature of 37° C. is maintained using a temperature-controlled heated surgical table. A small midline incision is made on the scalp using aseptic surgical techniques. A 5 mm stainless steel disc is positioned on the skull and fixed using superglue on the right parietal bone between bregma and lamda over the somatosensory cortex. The mouse is then positioned on a stage directly under the pneumatic impact tip. […] Mice are placed in a Thermo-Intensive Care Unit (Braintree Scientific model FV-1; 37° C.; 27% O2) and monitored until fully awake and moving freely. […]
Western Blot Analysis for GFAP: At selected survival times, mice are anesthetized under isoflurane and sacrificed. […] The homogenate is transferred to a 2 mL tube and centrifuged at 1000 g for 10 minutes at 4° C. and the supernatant is collected and analyzed. Protein concentration is determined by the BCA assay using a 1:50 dilution. […]

[4] = test system: reversible forebrain ischemia in the rat; details: cited from earlier work
[5] = target: T1, A3R (Rattus norvegicus, UniProt P28647); details: cited from earlier work
T1 sequence (P28647 1-320): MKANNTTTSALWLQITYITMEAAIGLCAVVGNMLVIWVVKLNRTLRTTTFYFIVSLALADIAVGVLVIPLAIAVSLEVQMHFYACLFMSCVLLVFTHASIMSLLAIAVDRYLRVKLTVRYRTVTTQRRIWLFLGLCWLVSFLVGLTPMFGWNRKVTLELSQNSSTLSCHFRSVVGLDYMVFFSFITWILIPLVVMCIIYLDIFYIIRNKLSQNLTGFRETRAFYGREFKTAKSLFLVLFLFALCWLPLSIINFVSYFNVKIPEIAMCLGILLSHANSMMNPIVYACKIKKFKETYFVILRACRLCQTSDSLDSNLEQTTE

[6] = target: T1, A3R; assay: estimated brain receptor occupancy of R-PIA at A3R; assay type: in vivo; details: associated with beneficial ATP effects
Source text: (§2) We therefore performed the same study using ^31P-ATP and measured the receptor engagement in the brain associated with the beneficial ATP effects.

[7] = target: T2, A1R (Rattus norvegicus, UniProt P25099); assay: estimated brain receptor occupancy of R-PIA at A1R; assay type: in vivo; details: associated with beneficial ATP effects
T2 construct: measured the receptor engagement in the brain associated with the beneficial ATP effects; from tissue; host or cells: brain of living rats (cerebral ischemia model)
T2 sequence (P25099 1-326): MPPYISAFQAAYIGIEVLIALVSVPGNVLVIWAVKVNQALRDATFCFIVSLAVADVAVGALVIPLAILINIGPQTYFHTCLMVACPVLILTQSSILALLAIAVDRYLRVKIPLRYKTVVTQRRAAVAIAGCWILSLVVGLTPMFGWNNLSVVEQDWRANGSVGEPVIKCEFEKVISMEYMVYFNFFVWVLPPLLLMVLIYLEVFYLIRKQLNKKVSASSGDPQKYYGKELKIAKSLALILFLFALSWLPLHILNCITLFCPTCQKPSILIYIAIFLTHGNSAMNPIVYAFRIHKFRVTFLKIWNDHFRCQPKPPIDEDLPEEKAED
Source text: as §2

[8] = test system: rodent model of cerebral ischemia; assay: reproduction of Roucher study: ATP decline during cerebral ischemia; assay type: in vivo, rat; details: dose of 0.02 mg/kg, rats
Source text: As part of the current study, we first reproduced the original Roucher results.
as §2

| free (unbound) fraction in plasma [1] | free (unbound) fraction in brain [2] | estimated RO % for A3R [6] [%] | estimated RO % for A1R [7] [%] | Compound | efficacy in mouse TBI model [3] | intracellular pH ([4]; 30-min ischemia, reference group 6.30) | effect on cerebral metabolism before ischemia ([4]; before ischemia) | phosphocreatine, % of the control level ([4]; end of 30-min ischemia, reference group 27+/−9%) | ATP, % of the control level ([4]; end of 30-min ischemia, reference group 40+/−23%) | inorganic phosphate, % of the control level ([4]; end of 30-min ischemia, reference group 905+/−229%) | recovery of PCr, ATP, Pi, and pHi to control levels ([4]; recirculation, versus reference group) | Ki [5] [nM] | decline in ATP during ischemia [8] |
| --- | --- | --- | --- | --- | --- | --- | --- | --- | --- | --- | --- | --- | --- |
| 0.002 | 0.002 | – | – | CNC(=O)[C@H]1O[C@@H](n2cnc3c(NCc4cccc(I)c4)nc(Cl)nc32)[C@H](O)[C@@H]1O [Cl-IB-MECA, 2-Chloro-N^6-(3-iodobenzyl)-adenosine-5′-N-methyluronamide, reference compound] | weakly active | – | – | – | – | – | – | – | – |
| – | – | 1 | 16 | C[C@H](Cc1ccccc1)Nc1ncnc2c1ncn2[C@@H]1O[C@H](CO)[C@@H](O)[C@H]1O [Compound I-25, N^6-(L-2-Phenylisopropyl)adenosine] | – | 6.40+/−0.10 | no effect | 43+/−11% | 58+/−12% | 672+/−210% | faster recovery | 158 | partial reversal |

Source: patent publication US20250177405A1, “METHODS OF TREATING NEUROLOGICAL AND CARDIOVASCULAR CONDITIONS” (ASTROCYTE PHARMACEUTICALS, INC., priority 2021, published 2025)
